Patent US20030203969A1, “Pharmaceutically active aromatic guanylhydrazones” (priority 2000, published 2003)

Tests used:
clinical HIV-1 isolates = assay: Inhibition of clinical HIV-1 isolates in PBMCs from HIV-1-infected patients; type: cell-based; details: d14
Experimental: HIV replication was measured either by p24 HIV Antigen Capture Assay Kit (ELISA; HIVAG-1 Monoclonal kit BIA011; Abbott) following the manufacturer's recommendation, or by using the Quantiplex HIV-1 RNA 3.0 Assay (bDNA) system (Chiron Diagnostics). The latter assay is a signal amplification nucleic acid probe assay (employing a sandwich nucleic acid hybridization procedure) for direct quantitation of HIV RNA in human plasma. There, in brief, HIV-1 is first concentrated from plasma by centrifugation. After release of genomic HIV-1 RNA from the virions, the RNA is captured to a microwell by a set of specific, synthetic oligonucleotide capture probes. A set of target probes hybridize to both the viral RNA and the pre-amplifier probes. The capture probes, comprised of 17 individual capture extenders, and the target probes, comprised of 81 individual target extenders, bind to different regions of the pol gene of the viral RNA. The amplifier probe hybridizes to the pre-amplifier forming a branched DNA (bDNA) complex. Then, multiple copies of an alkaline phosphatase labeled probe are hybridized to this immobilized bDNA complex. Detection is achieved by incubating the entire complex with a chemoluminescent substrate. Light emission is directly proportional to the amount of HIV-1 RNA present in each sample, and results are recorded as relative light units by an appropriate analyzer.
Peripheral blood mononuclear cells (PBMCs) from HIV-1-infected patients were isolated—(after informal consent was given)—by Biocoll (Biochrom) gradient centrifugation. 1×10^6/ml PBMCs were cultured (5 ml in a six well 32-mm plate) in presence of the test drugs or in DMSO (control diluent) in RPMI 1640 medium supplemented with 10% autologous serum and 2 mM L-Glutamine at 37° C. and 5% CO2.
The culture medium was changed every 3 days during the experiments. Once a week, each culture was split 1:1 and 2×10^6 feeder-PBMCs (per well) and recombinant Interleukin 2 (IL-2) [10U/ml] (Roche) was added. Prior to addition to the cell cultures, the feeder-PBMCs, prepared from 4 healthy donors, were treated for 4 days with PHA-P and PB (2 μg/ml each per 2×10^6 cells). At day 14, viability of the PBMCs (Trypan-blue staining), cell count and virus load (p24 antigen: Innotest HIV Antigen mAb, Innogenetics N. V., Gent, Belgium, or bDNA: HIV-1 RNA 3.0 Assay, Bayer AG, Tarrytown, N.Y., USA) was determined. No significant differences in cell viability were observed (˜75-80% vital cells).
At day 14 of cultivation, the virus replicated vigorously in all untreated cultures. Numbers describe percent inhibition of HIV-1 replication as compared to control experiments.

HHV8 = assay: HHV-8 replication in TPA-induced BCBL-1 cells (TaqMan PCR); type: cell-based, Human herpesvirus 8
Experimental: The human BCBL-1 cell line is available through the AIDS Reference and Reagent Program (Cat.No. 3233). This cell line was derived from a body cavity-based lymphoma latently infected with HHV-8. Culturing these cells in the presence of phorbol ester induces a lytic infection cycle, resulting in the release of viral particles into the medium. Compound efficacy in this proposed assay is determined using TaqMan PCR technology, and compound toxicity is measured by addition of Promega's Cell Titer Aqueous One Solution (metabolic dye).
7. BCBL-1 cells will be counted by the trypan blue dye exclusion method, and the cell count/ml will be determined. Cells will be pelleted by centrifugation and washed once with PBS to minimize the basal level of virus released from untreated cells which spontaneously enter the lytic cycle and release virus.
8. Cells will be resuspended in fresh media and adjusted to the appropriate cell density. Cells will then be plated in the interior wells of 96-well round-bottom microtiter plates in a volume of 50 μl per well.
9. […]
11. A standard curve prepared from known copy numbers of DNA isolated from BCBL-1 cells and amplified will be run with each plate in order to quantitate the DNA copy number in each original sample. The efficacy of the compound will be determined by comparing DNA copy numbers from test wells with those of control wells.

**Q.** Which “percent inhibition of HIV-1 replication as compared to control” value (from here on “percent inhibition of HIV-1 replication”) (clinical HIV-1 isolates; HIV-infected PBMCs from patient 1, 0.5 μM) does the source give for `CC(=NNC(=N)N)c1cc(NC(=O)CCCCCCCCC(=O)Nc2cc(C(C)=NNC(=N)N)cc(C(C)=NNC(=N)N)c2)cc(C(C)=NNC(=N)N)c1` [Compound 4, N,N′-bis (3,5-diacetylphenyl) decane diamide tetrakis (amidinohydrazone)] here?
**A.** The value was 91.6%.

**Q.** And the “percent inhibition of HIV-1 replication” value (clinical HIV-1 isolates; HIV-infected PBMCs from patient 1, 1.0 μM)?
**A.** The value was 90.7%.

**Q.** And the “percent inhibition of HIV-1 replication” value (clinical HIV-1 isolates; HIV-infected PBMCs from patient 2, 0.5 μM)?
**A.** The value was 85.8%.

**Q.** What about the “percent inhibition of HIV-1 replication” value (clinical HIV-1 isolates; HIV-infected PBMCs from patient 2, 1.0 μM) of the same compound?
**A.** The value was 97.6%.

**Q.** What about the “percent inhibition of HIV-1 replication” value (clinical HIV-1 isolates; HIV-infected PBMCs from patient 3, 0.5 μM) of the same compound?
**A.** The value was 91%.

**Q.** And the “percent inhibition of HIV-1 replication” value (clinical HIV-1 isolates; HIV-infected PBMCs from patient 3, 1.0 μM)?
**A.** Its value is 90%.

**Q.** What about the Comments (HHV8; HHV8, BCBL-1 cells) of the same compound?
**A.** The Comments was “Active”.

**Q.** What about the IC50 (HHV8; chronically HHV8-infected BCBL-1 cells) of the same compound?
**A.** The IC50 was 2300 nM.
